Source: US20120289501A1, “Benzene-fused 6-membered oxygen-containing heterocyclic derivatives of bicyclic heteroaryls” (NOVARTIS AG, priority 2009, published 2012)

Molecular target: IGF1R (Homo sapiens, UniProt P08069)
Experiment: Cellular IGF-1R assay: inhibition of IGF1R phosphorylation in transduced Hek293 cells, capture ELISA (MSD)
Assay type: cell-based
Design: Hek293 cells transduced with the corresponding receptors; expressed in transfected cells; host or cells: Hek293 (Hek293-IGF1R)
Protocol: In this assay the activity of the compounds of the invention against Insulin-like growth factor I (IGF-1) induced autophosphorylation of the IGF-IR is determined. The assay is conducted as follows: Compound-mediated inhibition of IGF1R and INSR phosphorylation in Hek293 cells transduced with the corresponding receptors is assessed in a capture ELISA format using the MSD (Meso Scale Discovery) platform. Briefly, 30′000 cells washed and diluted in starvation medium (DMEM high glucose supplemented with 0.1% BSA) are seeded in 90 μL per well into 96-well plates pre-coated with poly-D-lysine (0.1 mg/mL in PBS/0). After 24 h incubation at 37° C. and 5% CO2, dose-response effects are determined with 3-fold serial compound dilutions, starting at 10 μM. The final vehicle concentration is 0.1% DMSO in all wells. Following pre-incubation with compounds for 1 h, receptor phosphorylation is triggered by a 10 min exposure to 1.0 ng/μL IGF for Hek293-IGF1R cells, and 5.0 ng/μL insulin for Hek293-InsR cells. Cell lysis is achieved by addition of 80 μL MSD lysis buffer per aspirated well, incubation on ice for 20 min, and a freeze-thaw cycle. Target phosphorylation is then assessed by transferring volumes corresponding to approx. 6 μg Hek293-IGF1R or 0.6 μg Hek293-InsR lysates to MSD assay plates pre-coated with total-IGF1R or total-InsR Abs, respectively. After incubation for 2 h at rt, wells are exposed for 1 hr to a rabbit monoclonal antibody (CST #3024, 1:1000) detecting pIGF1R(Tyr1135/1136) as well as pINSR(Tyr1150/1151). Immune complexes are detected by a SULFO-Tag™-coupled anti-rabbit IgG antibody in the presence of 150 μL MSD read-buffer. Light emission at 620 nm triggered by application of electric current is recorded on a MSD SectorImager 6000. Acquired raw data (mean Ru-ECL units) are processed in an Excel analysis template. The plate blank (MSD lysis buffer) is subtracted from all data points. The effect of a particular test compound concentration on receptor phosphorylation is expressed relative to the window defined by ligand-stimulated vs unstimulated control cells (set as 100%). IC50 values [nM] are determined using 4-parametric curve-fitting (XLfit software, V4.3.2). Alternatively, the assay can be conducted with a slightly different format; Compound-mediated inhibition of IGF-1R and InsR phosphorylation in HEK293 cells overexpressing the corresponding receptors were assessed by quantitative Western blot using an Odyssey infrared imager as readout.
Compound-mediated inhibition of IGF1R and INSR phosphorylation in Hek293 cells transduced with the corresponding receptors is assessed in a capture ELISA format using the MSD (Meso Scale Discovery) platform. Briefly, 30′000 cells washed and diluted in starvation medium (DMEM high glucose supplemented with 0.1% BSA) are seeded in 90 μL per well into 96-well plates pre-coated with poly-D-lysine (0.1 mg/mL in PBS/O). After 24 h incubation at 37° C. and 5% CO2, dose-response effects are determined with 3-fold serial compound dilutions, starting at 10 μM. The final vehicle concentration is 0.1% DMSO in all wells. Following pre-incubation with compounds for 1 h, receptor phosphorylation is triggered by a 10 min exposure to 1.0 ng/μL IGF for Hek293-IGF1R cells, and 5.0 ng/μL insulin for Hek293-InsR cells. Cell lysis is achieved by addition of 80 μL MSD lysis buffer per aspirated well, incubation on ice for 20 min, and a freeze-thaw cycle. Target phosphorylation is then assessed by transferring volumes corresponding to approx. 6 μg Hek293-IGF1R or 0.6 μg Hek293-lnsR lysates to MSD assay plates pre-coated with total-IGF1R or total-lnsR Abs, respectively. After incubation for 2 h at rt, wells are exposed for 1 hr to a rabbit monoclonal antibody (CST #3024, 1:1000) detecting pIGF1R(Tyr1135/1136) as well as pINSR(Tyr1150/1151). Immune complexes are detected by a SULFO-Tag™-coupled anti-rabbit IgG antibody in the presence of 150 μL MSD read-buffer. […]

Chain of IGF1R (P08069 31-1367): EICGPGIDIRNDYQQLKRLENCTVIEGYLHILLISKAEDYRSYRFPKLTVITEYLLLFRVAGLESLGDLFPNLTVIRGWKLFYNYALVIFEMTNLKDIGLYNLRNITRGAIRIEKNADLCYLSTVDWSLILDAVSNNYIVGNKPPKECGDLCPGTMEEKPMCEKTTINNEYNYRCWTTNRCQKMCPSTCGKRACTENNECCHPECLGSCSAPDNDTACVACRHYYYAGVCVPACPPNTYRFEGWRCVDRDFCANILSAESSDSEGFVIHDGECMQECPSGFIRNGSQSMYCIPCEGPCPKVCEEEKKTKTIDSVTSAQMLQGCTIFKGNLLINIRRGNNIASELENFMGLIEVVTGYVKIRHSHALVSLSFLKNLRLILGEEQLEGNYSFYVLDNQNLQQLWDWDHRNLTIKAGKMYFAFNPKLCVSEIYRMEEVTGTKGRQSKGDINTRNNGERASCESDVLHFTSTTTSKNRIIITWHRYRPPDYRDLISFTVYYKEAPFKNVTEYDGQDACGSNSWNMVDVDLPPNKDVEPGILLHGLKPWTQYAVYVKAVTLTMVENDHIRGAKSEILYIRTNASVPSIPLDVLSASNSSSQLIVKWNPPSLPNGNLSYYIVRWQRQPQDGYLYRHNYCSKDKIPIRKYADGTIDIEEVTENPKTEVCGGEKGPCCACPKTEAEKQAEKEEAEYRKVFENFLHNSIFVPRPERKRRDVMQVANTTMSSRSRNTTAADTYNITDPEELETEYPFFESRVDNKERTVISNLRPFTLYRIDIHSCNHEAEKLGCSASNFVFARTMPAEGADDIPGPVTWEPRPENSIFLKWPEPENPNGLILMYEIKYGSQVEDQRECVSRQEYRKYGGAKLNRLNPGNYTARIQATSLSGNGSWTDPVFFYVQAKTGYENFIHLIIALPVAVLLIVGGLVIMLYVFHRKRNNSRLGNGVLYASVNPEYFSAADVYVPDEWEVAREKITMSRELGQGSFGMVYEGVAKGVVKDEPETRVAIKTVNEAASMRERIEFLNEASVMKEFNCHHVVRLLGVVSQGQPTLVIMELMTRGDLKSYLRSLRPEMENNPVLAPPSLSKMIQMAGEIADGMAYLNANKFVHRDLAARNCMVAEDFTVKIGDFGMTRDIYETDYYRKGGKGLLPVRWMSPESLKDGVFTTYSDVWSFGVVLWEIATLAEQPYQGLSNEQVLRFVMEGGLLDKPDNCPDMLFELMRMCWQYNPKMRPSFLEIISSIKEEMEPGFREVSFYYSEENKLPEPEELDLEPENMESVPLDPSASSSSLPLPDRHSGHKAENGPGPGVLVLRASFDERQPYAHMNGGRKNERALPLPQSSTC

Compound | IC50 [µM]
CC(=O)N[C@H]1CC[C@@H](n2cc(-c3ccc4c(c3)OC(c3ccccc3)CC4)c3c(N)ncnc32)CC1 (mixture of isomers) [Example 55, (±)-N-(cis-4-(4-amino-5-(2-phenylchroman-7-yl)-7H-pyrrolo[2,3-d]pyrimidin-7-yl)cyclohexyl)acetamide] | 0.108
Nc1ncnc2c1c(-c1ccc3c(c1)O[C@H](c1ccccc1)CC3)cn2[C@H]1C[C@@H](CN2CCS(=O)(=O)CC2)C1 [Example 25, (S)-7-[cis-3-(1,1-dioxo-thiomorpholin-4-ylmethyl)-cyclobutyl]-5-(2-phenyl-chroman-7-yl)-7H-pyrrolo[2,3-d]pyrimidin-4-ylamine] | 0.009
Nc1nccn2c1c(-c1ccc3c(c1)O[C@@H](c1ccccc1)C=C3)nc2[C@H]1C[C@@H](CO)C1 (relative stereo) [Example 22, (R,S)-{cis-3-[8-Amino-1-(2-phenyl-2H-chromen-7-yl)-imidazo[1,5-a]pyrazin-3-yl]-cyclobutyl}-methanol] | 0.179
Nc1ncnc2c1c(-c1ccc3c(c1)OC(c1ccccc1)CC3)cn2[C@H]1C[C@H](CO)C1 (mixture of isomers) [Example 2, (R,S)-{Trans-3-[4-amino-5-(2-phenyl-chroman-7-yl)-pyrrolo[2,3-d]pyrimidin-7-yl]-cyclobutyl}-methanol] | 0.03 to 0.103
Nc1ncnc2c1c(-c1ccc3c(c1)OC(c1ccccn1)CC3)cn2[C@H]1C[C@@](O)(CO)C1 (mixture of isomers) [Example 56, (±)-(E)-3-(4-amino-5-(2-(pyridin-2-yl)chroman-7-yl)-7H-pyrrolo[2,3-d]pyrimidin-7-yl)-1-(hydroxymethyl)cyclobutanol] | 0.548
Nc1ncnc2c1c(-c1ccc3c(c1)OC(C1CCCO1)CC3)cn2C1CC(CN2CCS(=O)(=O)CC2)C1 (single isomer, unassigned) [Example 31, (u)-7-[3-(1,1-Dioxo-1-thiomorpholin-4-ylmethyl)-cyclobutyl]-5-[2-(tetrahydro-furan-2-yl)-chroman-7-yl]-7H-pyrrolo[2,3-d]pyrimidin-4-ylamine] | 0.007
Nc1nccn2c1c(-c1ccc3c(c1)OC(c1ccccc1)CC3)nc2[C@H]1C[C@@H](Cn2ccnc2CO)C1 (relative stereo) [Example 39, (1-{cis-3-[8-Amino-1-(2-phenyl-chroman-7-yl)-imidazo[1,5-a]pyrazin-3-yl]-cyclobutylmethyl}-1H-imidazol-2-yl)-methanol] | 0.218
Nc1ncnc2c1c(-c1ccc3c(c1)OC(c1ccccc1)CC3)cn2C1CC(CN2CCC(O)CC2)C1 (stereo not shown) [Example 37, 1-{3-[4-Amino-5-(2-phenyl-chroman-7-yl)-pyrrolo[2,3-d]pyrimidin-7-yl]-cyclobutylmethyl}-piperidin-4-ol] | 0.046
Cc1nccn1C[C@H]1C[C@@H](c2nc(-c3ccc4c(c3)OC(c3ccccc3)CC4)c3c(N)nccn32)C1 (mixture of isomers) [Example 7, (R,S)-3-[cis-3-(2-Methyl-imidazol-1-ylmethyl)-cyclobutyl]-1-(2-phenyl-chroman-7-yl)-imidazo[1,5-a]pyrazin-8-ylamine] | 0.026
Nc1ncnc2c1c(-c1ccc3c(c1)OC(c1ccccc1)CC3)cn2[C@H]1C[C@@H](CO)C1 (mixture of isomers) [Example 1, (R,S)-{cis-3-[4-Amino-5-(2-phenyl-chroman-7-yl)-pyrrolo[2,3-d]pyrimidin-7-yl]-cyclobutyl}-methanol] | 0.011 to 0.022
Nc1ncnc2c1c(-c1ccc3c(c1)OC(c1ccccc1)CC3)cn2C1CC(O)(CO)C1 (single isomer, unassigned) [Example 27] | 0.031 to 0.112
Nc1ncnc2c1c(-c1ccc3c(c1)OC(c1ccccc1)CC3)cn2[C@H]1C[C@@H](CN2CCC[C@H]2CO)C1 (mixture of isomers) [Example 14, (1-{cis-3-[4-Amino-5-((R)-2-phenyl-chroman-7-yl)-pyrrolo[2,3-d]pyrimidin-7-yl]-cyclobutylmethyl}-(S)-pyrrolidin-2-yl)-methanol and (1-{cis-3-[4-amino-5-[((S)-2-phenyl-chroman-7-yl)-pyrrolo[2,3-d]pyrimidin-7-yl]-cyclobutylmethyl}-(S)-pyrrolidin-2-yl)-methanol] | < 0.005
Nc1ncnc2c1c(-c1ccc3c(c1)OC(c1ccccc1)CC3)cn2[C@H]1CC[C@@H](NC(=O)C2CC2)CC1 (mixture of isomers) [Example 51, (±)-N-(cis-4-(4-amino-5-(2-phenylchroman-7-yl)-7H-pyrrolo[2,3-d]pyrimidin-7-yl)cyclohexyl)cyclopropanecarboxamide] | 0.136
